Data published in PubChem BioAssay (NCI).
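Step 1: Grow cells in 96-well plates. Step 2: Expose to compound for 48 hours at 5 concentrations. Step 3: Interpolate endpoints linearly; if unreached, use highest concentration. TGI denotes the concentration required for complete inhibition of growth.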

Key:
Assay in all cases: NCI anticancer screen, dose series, 48 h
A549 NSCLC = test system: A549 NSCLC
DU-145 prostate = test system: DU-145 prostate
K-562 leukemia = test system: K-562 leukemia
KM12 colon = test system: KM12 colon
M14 melanoma = test system: M14 melanoma
NCI-H522 lung = test system: NCI-H522 lung
OVCAR-5 ovarian = test system: OVCAR-5 ovarian
U251 CNS = test system: U251 CNS
HOP-92 NSCLC = test system: HOP-92 NSCLC
NCI-H23 lung = test system: NCI-H23 lung

| Structure (SMILES) | TGI (A549 NSCLC) | TGI (DU-145 prostate) | TGI (K-562 leukemia) | TGI (KM12 colon) | TGI (M14 melanoma) | TGI (NCI-H522 lung) | TGI (OVCAR-5 ovarian) | TGI (U251 CNS) | TGI (HOP-92 NSCLC) | TGI (NCI-H23 lung) |
| --- | --- | --- | --- | --- | --- | --- | --- | --- | --- | --- |
| Cc1csc2c1-n1cccc1C2=O | > 100 µM | > 100 µM | > 100 µM | > 100 µM | > 100 µM | > 100 µM | > 100 µM | > 100 µM |  |  |
| Cc1sc2c(c1C)/C(=N\O)c1cccn1-2 | > 100 µM | > 100 µM |  | > 100 µM | > 100 µM | > 100 µM | > 100 µM | 69.7 µM |  |  |
| O=C(O)c1ccc(C2=Cc3cc(Cl)ccc3OC2)cc1 | > 100 µM |  | > 100 µM | > 100 µM | > 100 µM | > 100 µM | > 100 µM | > 100 µM | > 100 µM | > 100 µM |
| c1csc(-c2ccsc2-c2cccs2)c1 | 61 µM | > 100 µM |  | > 100 µM | > 100 µM | > 100 µM | > 100 µM | > 100 µM | > 100 µM | 49.7 µM |
| Cc1cccc(N2C(=O)C3c4[nH]c5ccccc5c4C4CCC(C(C)(C)C)CC4C3C2=O)c1 (stereo unspecified) | 22.3 µM | 33.4 µM | 17.4 µM | 25.2 µM | 28.3 µM | 24.3 µM | 35.2 µM | 47.8 µM |  | 30.1 µM |
| C/C=C1\CN(C(=O)OC(C)(C)C)C1C(=O)OC(C)(C)C (stereo unspecified) | > 100 µM |  | > 100 µM |  | > 100 µM |  | > 100 µM |  | > 100 µM | > 100 µM |
| CC1CC/C(=C\c2ccc(F)cc2)C(=O)/C1=C/c1ccc(F)cc1 (stereo unspecified) |  | 17.1 µM | > 100 µM | 14.5 µM | 39.4 µM |  | 25.4 µM | 22.7 µM |  | 25.5 µM |
| Nc1nc(Cl)cc(NC2(CO)CCC2)n1 | > 100 µM | > 100 µM | > 100 µM | > 100 µM |  | > 100 µM | > 100 µM | > 100 µM | > 100 µM | > 100 µM |
| O=C1/C=C(/c2ccc(O)cc2)[C@@H](O)Cc2ccc(O)cc2O1 | > 100 µM |  |  | > 100 µM | > 100 µM | > 100 µM | > 100 µM | > 100 µM |  | > 100 µM |
| CC(=O)Oc1c(-c2ccccc2)sc2ccccc12 | 37.9 µM | 27.9 µM | 36.2 µM | 52.3 µM |  | 51.3 µM | 61.5 µM | 39.8 µM | 49.8 µM | 38.7 µM |
| Cc1c(N=Nc2ccccc2)c(C)n(C2OC(CO)C(O)C(O)C2O)c(=S)c1C#N (stereo unspecified) | > 100 µM | > 100 µM | > 100 µM | > 100 µM | 65.8 µM |  | 81.5 µM | 87.2 µM | 48.9 µM | > 100 µM |
| CCOC(=O)C(Cc1c[nH]c2cc([N+](=O)[O-])ccc12)NS(=O)(=O)c1ccc2ccccc2c1 (stereo unspecified) | > 100 µM |  | 39.1 µM | 30.8 µM | 34.1 µM | 30.4 µM |  | 32.9 µM | 51.6 µM | 48.4 µM |
| O=C(Nc1cccc([N+](=O)[O-])c1)c1n[nH]n(-c2cccc([N+](=O)[O-])c2)c1=O | > 100 µM | > 100 µM | > 100 µM | > 100 µM | > 100 µM | > 100 µM | > 100 µM | > 100 µM |  | > 100 µM |
| CCOC(=O)C(Cc1ccc(OC(=O)OC(C)(C)C)cc1)NC(=O)OC(C)(C)C (stereo unspecified) | > 100 µM | 96 µM | > 100 µM | > 100 µM | 79.9 µM | > 100 µM | > 100 µM | > 100 µM |  | > 100 µM |
| NNC(=S)NCCNC(=S)NN | > 100 µM | > 100 µM |  | > 100 µM | > 100 µM | > 100 µM | > 100 µM | > 100 µM |  | > 100 µM |
| O=C(CSc1nc(-c2ccccc2)c(-c2ccccc2)[nH]1)N/N=C/c1ccc(O)cc1 | 69.5 µM |  | > 100 µM | 55.4 µM | 40.6 µM | 48.6 µM |  | 49 µM | 84.9 µM | 84.3 µM |
| Clc1ccc(-c2cn3c(nc4ccccc43)c(/C=C/c3ccco3)n2)cc1 | > 100 µM | > 100 µM | > 100 µM | > 100 µM | > 100 µM |  | > 100 µM | > 100 µM | 50.4 µM | > 100 µM |
| COC1=CC2(CC(OC)=C1OC)OC21COc2ccccc2C1=O (stereo unspecified) | > 100 µM |  | > 100 µM | > 100 µM | > 100 µM | > 100 µM | > 100 µM | > 100 µM | > 100 µM | > 100 µM |
| Cc1nc(C)c(N2CCNCC2)c(=O)[nH]1 | > 100 µM | > 100 µM | > 100 µM | > 100 µM | > 100 µM | > 100 µM |  | > 100 µM | > 100 µM | > 100 µM |
| O=c1ccn(C2OC(CO)C(O)C2F)c(=O)n1Cc1ccccc1 (stereo unspecified) | > 100 µM | > 100 µM | > 100 µM | > 100 µM |  | > 100 µM | > 100 µM | > 100 µM |  | > 100 µM |
| CC(=O)Oc1c(N2CCCCC2)c(C(=O)c2ccccc2)c(O)c2ccn(N(C)C)c12 | > 100 µM | 56.6 µM | > 100 µM | 27.1 µM | 53.7 µM |  | > 100 µM | 33.5 µM | 88.6 µM | 38.5 µM |
| NC1=NS(=O)(=O)Nc2nc(-c3ccccc3)[nH]c21 | > 100 µM |  | > 100 µM | > 100 µM | > 100 µM | > 100 µM | > 100 µM | > 100 µM | > 100 µM | > 100 µM |
| COC(=O)N[C@H](C(=O)O)C(C)O[Si](C)(C)C(C)(C)C (stereo partly specified) | > 100 µM | > 100 µM | > 100 µM | > 100 µM |  | > 100 µM | > 100 µM | > 100 µM |  | > 100 µM |
| O=[N+]([O-])C(/C=N/Nc1ccccc1)/C=N/Nc1ccccc1 | > 100 µM |  | > 100 µM | > 100 µM | > 100 µM | > 100 µM | > 100 µM | > 100 µM | > 100 µM | > 100 µM |
